Where two headings read alike, the source gives them in different places.
Conditions: 3.5 % lipids in yoghurt
Description: Analogous to example 2 four yoghurts with 3.5% fat (lipids) were followed during transit in the TNO intestinal Model (TIM).
The digestion process in the model was monitored for 5 hours. During the first 3 hours, the gastric content was gradually delivered into the small intestine via the Pyloric valve. At the end of the experiment, approximately 80% of the small intestine content was gradually delivered into the Large intestine via the Ileocecal valve.
Gastric secretions consisted of pepsin from porcine gastric mucosa (EC 3.4.23.1; Sigma-Aldrich Canada) and lipase (EC 3.1.1.3, from Rhizopus oryzae, Amano Pharmaceuticals, Japan), both dissolved in a Gastric Electrolyte Solution (GES: 3.1 g/l NaCl; 1.1 g/l KCl; 0.15 g/l CaCl2; 0.6 g/l NaHCO3). At the beginning of the experiment, a solution of trypsin from porcine pancreas (EC 3.4.21.4; Sigma-Aldrich Canada) was directly introduced into the duodenum. Also, porcine bile extract (supernatant of centrifuged, thawed bile from frozen, fresh collected porcine bile); pancreatic solution (Pancrex V powder; Paines and Byrne, UK), and intestine electrolyte solution (5.0 g/l NaCl; 0.6 g/l KCl; 0.3 g/l CaCl2 at pH 7.0) were delivered in the duodenal compartment.
Prior to testing the yoghurt containers were gently shaken to homogenise contents. At the beginning of each experiment, a 270 g amount of yoghurt was introduced into the gastric (i.e. stomach)—compartment of the TIM. At specific intervals samples were taken from different compartments of the gastro-intestinal tract (Gastric-; jejunum- and ileum lumen). A selection of fresh lumen samples were also directly visually studied by Bright Field microscope (Leica ATC2000 Binocular Microscope), equipped with a phase contrast mode.
The profile of the free fatty acid part of the lipid composition (FFA analysis) was determined by a method developed by the NIZO.
The free fatty acid level for all fatty acids in the ileum as well as the saturated fatty acid (FA) fraction C16:0 and C18:0 and higher in the ileum lumen were determined using FFA method as described above.

Total FFA levels in the ileum lumen (1 h): 171.5 g FFA/kg dry matter
saturated FFA (C16:0 + C18:0 + C20:0) based on total FFA in the ileum lumen (1 h): 91.4 w/w %
Total FFA levels in the ileum lumen (2 h): 348.3 g FFA/kg dry matter
saturated FFA (C16:0 + C18:0 + C20:0) based on total FFA in the ileum lumen (2 h): 96.6 w/w %
Total FFA levels in the ileum lumen (3 h): 504.8 g FFA/kg dry matter
saturated FFA (C16:0 + C18:0 + C20:0) based on total FFA in the ileum lumen (3 h): 97.8 w/w %
Total FFA levels in the ileum lumen (4 h): 461.6 g FFA/kg dry matter
saturated FFA (C16:0 + C18:0 + C20:0) based on total FFA in the ileum lumen (4 h): 97.5 w/w %
Total FFA levels in the ileum lumen (5 h): 466.2 g FFA/kg dry matter
saturated FFA (C16:0 + C18:0 + C20:0) based on total FFA in the ileum lumen (5 h): 97.6 w/w %
Structure (SMILES): CCCCCCCCCCCCCCCC(=O)O [Palmitic acid]

Source: patent US20130253058A1, “SATIETY-INDUCING COMPOSITION” (DSM IP ASSETS B.V., priority 2009, published 2013)
